# Test results reported in US6599283B1, “Method of preventing reperfusion injury” (priority 2001, dated 2003).
# Experiments:
# [1] = system: AMI patients undergoing primary PTCA; experiment: Metabolic data: creatine kinase (CK) and CK-MB; type: in vivo, human; settings: mean ± SD
# Description: (§1) Fifty four AMI patients undergoing primary PTCA were randomized to intracoronary adenosine or saline. The 2 groups were similar for age, sex, and infarct location. Patients referred for PTCA within 3 hours from the onset of AMI were considered for the study. Patients underwent diagnostic coronary angiography. If the culprit lesion was suitable for PTCA and presented with a TIMI flow from 0 to 2, the patient was included in the study and randomized after informed consent had been obtained. Patients presenting with TIMI 3 flow were diagnosed as having spontaneous reperfusion and were not included in the study.
# After left and right coronary arteriography by the femoral approach, a temporary pacing wire was advanced into the right ventricle and connected with a pacemaker left on demand at 60 bpm. The obstruction of the infarct-related artery was crossed with a 0.014-in guidewire, and an over-the-wire balloon catheter was positioned at the level of the obstruction. The wire was pulled out, and diluted contrast was injected through the central lumen of the catheter to confirm positioning of the catheter tip downstream of the obstruction and to assess patency of the distal vessel. […] The guidewire was then readvanced into the distal vessel, and the balloon was deflated to initiate reperfusion of the ischemic territory. […]
# infarct-related artery = experiment: Angiographic analysis (residual stenosis, TIMI flow, no-reflow) after primary PTCA; type: in vivo, human
# Description: as §1
# After left and right coronary arteriography by the femoral approach, a temporary pacing wire was advanced into the right ventricle and connected with a pacemaker left on demand at 60 bpm. The obstruction of the infarct-related artery was crossed with a 0.014-in guidewire, and an over-the-wire balloon catheter was positioned at the level of the obstruction. The wire was pulled out, and diluted contrast was injected through the central lumen of the catheter to confirm positioning of the catheter tip downstream of the obstruction and to assess patency of the distal vessel. The balloon was inflated, and either adenosine (4 mg in 2 mL saline) or saline (2 mL) was hand-injected into the distal vascular bed in a random fashion. The rate of injection was such as to complete treatment in 1 minute. The guidewire was then readvanced into the distal vessel, and the balloon was deflated to initiate reperfusion of the ischemic territory. The dilatation procedure was completed according to standard technique. Stenting of the dilated coronary segment was performed only for suboptimal balloon results or flow-limiting dissections. […]
# The angiograms were reread as a single group, in chronological sequence, by observers who had not participated in the invasive procedure and were blinded to the treatment received. […] Diameter stenosis was measured by an automatic edge-detection system (Mipron, Kontron). […]
# [2] = system: AMI patients undergoing primary PTCA; experiment: Clinical events / clinical course in hospital after primary PTCA; type: in vivo, human
# Description: as §1
# (§2) After left and right coronary arteriography by the femoral approach, a temporary pacing wire was advanced into the right ventricle and connected with a pacemaker left on demand at 60 bpm. The obstruction of the infarct-related artery was crossed with a 0.014-in guidewire, and an over-the-wire balloon catheter was positioned at the level of the obstruction. The wire was pulled out, and diluted contrast was injected through the central lumen of the catheter to confirm positioning of the catheter tip downstream of the obstruction and to assess patency of the distal vessel. The balloon was inflated, and either adenosine (4 mg in 2 mL saline) or saline (2 mL) was hand-injected into the distal vascular bed in a random fashion. The rate of injection was such as to complete treatment in 1 minute. The guidewire was then readvanced into the distal vessel, and the balloon was deflated to initiate reperfusion of the ischemic territory. The dilatation procedure was completed according to standard technique. Stenting of the dilated coronary segment was performed only for suboptimal balloon results or flow-limiting dissections. […] The final angiogram was then obtained, and the patient was transferred to the intensive coronary care unit. If symptoms and/or ECG changes consistent with vessel reclosure occurred during this interval, coronary angiography was performed immediately, and therapeutic measures were applied. The dilation procedure was limited to the culprit lesion in all patients.
# (§3) The primary end points of this study were feasibility and safety of intracoronary adenosine administration in the setting of primary PTCA and its effect on coronary blood flow. As secondary end points, indexes of myocardial damage, including left ventricular regional function, Q-wave MI, recurrence of angina, nonfatal MI, heart failure, and cardiac death were evaluated.
# Physicians in charge of the patients in the intensive coronary care unit were informed of the angiographic results of the PTCA but were blinded to the intracoronary treatment administered during the procedure.
# left ventricle = experiment: Left ventricular regional function by 2D echocardiography; type: in vivo, human; settings: echocardiogram after 1 week vs admission
# Description: as §1, §2
# Left ventricular function was evaluated by 2D echocardiography within 24 hours from admission and after 1 week. Echocardiography was performed with the patient lying supine with a 2.5-MHz transducer fitted to a dedicated system (Hewlett-Packard Sonos 1500). Images were recorded on S-VHS tapes and analyzed offline by 2 experienced observers blinded to the angiographic data. Four views were used: the parasternal long- and short-axis (at the level of the papillary muscle) and apical 2- and 4-chamber views. The left ventricle was divided into 16 segments. In each segment, wall motion was graded as normal, hypokinetic, akinetic, or dyskinetic. Segmental motion at admission was compared with segmental motion at 1 week to detect changes of regional function.
# [3] = system: AMI patients undergoing primary PTCA; settings: in vivo
# Description: as §1
# After left and right coronary arteriography by the femoral approach, a temporary pacing wire was advanced into the right ventricle and connected with a pacemaker left on demand at 60 bpm. […] The guidewire was then readvanced into the distal vessel, and the balloon was deflated to initiate reperfusion of the ischemic territory. […]
# as §3
# [4] = intracoronary adenosine 4 mg in 2 mL saline, n = 27
structure (smiles),measurement,setting,value
"Nc1ncnc2c1ncn2[C@@H]1O[C@H](CO)[C@@H](O)[C@H]1O [Adenosine, adenosine]",Peak CK,[1],1994±1782 U/L
same,Peak CK-MB,[1],156±142 UAL
same,Residual diameter stenosis by quantitative coronary arteriography,"infarct-related artery; after PTCA, mean ± SD",27.8±9.5%
same,Flow in the infarct-related artery (TIMI grade),infarct-related artery; at the end of the dilation procedure,TIMI 3 in all adenosine patients
same,No-reflow phenomenon (drop of ≧1 TIMI grades in final angiogram relative to post-PTCA angiogram),"infarct-related artery; final angiogram 30 minutes after dilation, n = 27",1 patient
same,Length of hospital stay,[2]; hospital stay,9.1 ± 0.8 days
same,Recurrent angina and/or ischemia,"[2]; intracoronary adenosine 4 mg in 2 mL saline into distal vascular bed before balloon deflation, n = 27",3(11) number (%) of patients
same,Cardiac death,[2]; [4],0(0) number (%) of patients
same,"Cumulative clinical end points (recurrent angina and/or ischemia, non-fatal AMI, heart failure, cardiac death)",[2]; [4],5(18) number (%) of patients
same,Heart failure,[2]; [4],2(7) number (%) of patients
same,Nonfatal AMI,[2]; [4],0(0) number (%) of patients
same,Clinical diagnosis of heart failure,[2]; n = 27,Two
same,"Composite end point of recurrent angina, nonfatal MI, heart failure, and cardiac death",[2]; n = 27,5 patients
same,Deaths in hospital,[2]; n = 27,No deaths
same,Developed a Q-wave ML,[2]; n = 27,Sixteen
same,Recurrence of angina,[2]; n = 27,Three
same,Regional wall motion unchanged,left ventricle,38 segments
same,"Worsening of wall motion, share of segments",left ventricle,2%
same,"Wall motion improved, share of initially dyssynergic segments",left ventricle; 114 dyssynergic segments,64%
same,Worsening of wall motion,left ventricle; 114 dyssynergic segments,3 segments
same,"Wall motion improved, initially dyssynergic segments","left ventricle; 114 dyssynergic segments, 23 patients",73 segments
same,Bradyarrhythmias or tachyarrhythmias associated with protocol,[3],No bradyarrhythmias or tachyarrhythmias
